Experiment: Storage stability of sialyl phosphate donors
Type: physicochemical
Details: −20° C., several months
Experimental: The reaction was complete in 5 h to give a mixture of α- and β-anomers. The sialyl α-phosphate 2a and sialyl β-phosphate 2b can be easily separated by silica gel column chromatography and are both stable at −20° C. for several months.

Question: Which stability on storage does the source give for CCCCOP(=O)(OCCCC)OC1(C(=O)OC)CC(OC(C)=O)[C@@H](NC(C)=O)C([C@H](OC(C)=O)[C@@H](COC(C)=O)OC(C)=O)O1 (stereo partly shown) [2a] here?
Answer: stable

— patent US8507660B2 (priority 2009, dated 2013)
